Reference: patent US20250285714A1, “A PHARMACEUTICAL PLATFORM TECHNOLOGY FOR DRUG DISCOVERY AND CONSUMER HEALTH PRODUCT DEVELOPMENT” (SINOVEDA CANADA INC., priority 2021, published 2025)

Key:
Format in all cases: cell-based, human
[1] = tested on: HepG2 cells; assay: HepG2 cell proliferation XTT assay; details: HepG2 in-vitro cell model
Description: Cell assays: HepG2 cells were obtained from the American Type Culture Collection (ATCC). Cryopreserved cells in DMEM with 10% DMSO were thawed and diluted 10-fold in phenol red free DMEM media containing fetal 10% bovine serum, 100 μg/ml penicillin/streptomycin, supplemented with Glutamax™ and sodium pyruvate. Subsequently, cells were centrifuged at 20 g for 10 minutes. The cells were resuspended in the same media to a concentration of 2×10^5 cells/ml. Ninety-six well cell culture treated flat bottom plates were seeded with 7.5×10^3 HepG2 cells and incubated at 37° C., 5% CO2, >95% relative humidity for 18 hours to allow cellular adhesion after which media was replaced with like media containing 1-20% FBS and various test compounds (50 μg/ml to 50 ng/ml). […] Formazan production was measured 450 nm Varioskan lux at on a spectrophotometer. Non-specific absorption was measured at 660 nm and subtracted from the reference measurement at 450 nm. […]
Ternary cannabinoid assays: For tertiary cannabinoid compound mixtures, ratio mixtures of CBD:CBC:CBN were randomly chosen between 9:3:1 to 1:1:1 and CBN:CBC:CBD between 3:2:1 to 1:1:1 in IMDM media supplemented with 20% FBS and 1% ethanol and CBD:CBC:CBN ratios between 9:3:1 to 1:1:1 in DMEM media supplemented with 1% FBS. Cannabinoids were mixed and diluted in the media ready for serial dilution. […]

[2] = tested on: HepG2 cells; assay: rtPCR TaqMan array of cancer pathway genes in treated HepG2 cells; details: 6 h; CBD 17, CBC 23, CBN 20, 1:1:1 17, sorafenib 12 μg/ml
Description: rt-PCR: Target cancer gene pathways will be analyzed using a custom Taqman array card exploring 91 unique genes involved with a few cancer pathways.
Two million HepG2 cells in IMDM media with 20% FBS, and 1% ethanol were seeded in T75 flasks and incubated at 37° C., 7.5% CO2 until 70-80% confluent (approx. […]). The media were replenished with media containing individual cannabinoids (CBD 17 μg/ml, CBC 23 μg/ml, CBN 20 μg/ml) and cannabinoid mixture of CBD:CBC:CBN of 1:1:1 (17 μg/ml) and incubated for 6 hours prior to harvest. […] Untreated cells were included as a negative control Glyceraldehyde-3-phosphate dehydrogenase (GAPDH) was included as an endogenous control and used for normalization of the data.
RNA was extracted using Invitrogen's Dynabead mRNA DIRECT kit using the recommended protocol to provide 50 μL of a purified mRNA solution. […] of RT master mix was mixed into the mRNA solution and the mixture left to react at 37° C. for 60 minutes. Reverse transcriptase inactivation was performed at 95° C. for 5 minutes and the resulting cDNA samples were kept at 4° C. until use. Fifty-five microliters of TaqMan Fast Advance master mix were added to an equal amount of cDNA sample containing 1 μg/100 μl of cDNA, which was loaded into each card reservoir. The cards were centrifuged twice at 1200 RPM for 3 minutes in a Legend XFR centrifuge and the rtPCR reaction was conducted in a QuantStudio7 PCR instrument using the standard settings with 40 amplification cycles.
Assessment of cancer gene pathways were carried out using custom designed TaqMan array cards exploring 86 genes linked to numerous cancer related pathways. […] In addition to individual pathways, genes linked to specific cellular processes were also explored.

[3] = tested on: HepG2 cells; assay: In-cell Western-blot protein expression in treated HepG2 cells; details: six hour treatment; CBD 17, CBC 23, CBN 20, Sorafenib 12, SCI-111 17, SCI-521 17 μg/ml
Description: In-cell Western-blot analysis: Protein expression was assessed by seeding 1000 HepG2 cells/well from cyro frozen stocks into 384 well optical bottom black culture plates from Thermo-Scientific (item 142761) in IMDM media with 20% FBS and 1% ethanol. […] After a six hour treatment, the cells were fixated with 4% formaldehyde for 15 minutes, permeated with 0.1% triton-x100 for 10 minutes, and left in blocking buffer (phosphate buffered saline (PBS) with 3% bovine serum albumin (BSA)) overnight at 4 degrees Celsius. The following day, the cells were rinsed with PBS, incubated with 25 μl PBS containing primary antibody (Table 1) for 3 hours at 25° C. Subsequently, the primary antibody was removed, cells were rinsed twice with PBS, and incubated with 25 μl of PBS containing the secondary antibody (Rabbit: Alexa Fluor 790 donkey anti-rabbit IgG (H+L) Lot 2409042; Mouse: Alexa Fluor 790 donkey anti-mouse IgG (H+L) Lot 2300923) at a concentration of 1:2000. Draq5 (1:2000) was added for normalization of data. After an hour incubation in the secondary antibody, the cells were rinsed with PBS and readings at 700 and 800 nm were acquired on a Licor Odyssey fluorescence imager with a resolution of 21 μm. Analysis was subsequently performed with Empiria Studio 2.1. A total of 5 samples were collected per antibody and the sample size was reduced to 3 for the statistical analysis.

Structure (SMILES): C=C(C)[C@@H]1CCC(C)=C[C@H]1c1c(O)cc(CCCCC)cc1O [CBD, Cannabidiol, reference compound]
- Potency/efficacy compared to sorafenib [1]: more potent
- rtPCR Log2 fold change relative to untreated cells, BAD (Apoptosis) [2]: −1.49 Log2 fold change
- rtPCR Log2 fold change relative to untreated cells, BAX (Apoptosis) [2]: −1.103 Log2 fold change
- rtPCR Log2 fold change relative to untreated cells, BCL2 (Apoptosis) [2]: 4.139 Log2 fold change
- rtPCR Log2 fold change relative to untreated cells, BCL2L1 (Apoptosis) [2]: −1.414 Log2 fold change
- rtPCR Log2 fold change relative to untreated cells, CAMK1 (Ca signaling) [2]: −1.329 Log2 fold change
- rtPCR Log2 fold change relative to untreated cells, CASP3 (Apoptosis) [2]: −1.165 Log2 fold change
- rtPCR Log2 fold change relative to untreated cells, CCND1 (Cell Cycle Arrest) [2]: −1.396 Log2 fold change
- rtPCR Log2 fold change relative to untreated cells, CCND2 (Cell Cycle Arrest) [2]: −1.032 Log2 fold change
- rtPCR Log2 fold change relative to untreated cells, CDK1 (Cell Cycle Arrest) [2]: −1.257 Log2 fold change
- rtPCR Log2 fold change relative to untreated cells, CDK4 (Cell Cycle Arrest) [2]: −1.517 Log2 fold change
- rtPCR Log2 fold change relative to untreated cells, CDK6 (Cell Cycle Arrest) [2]: −1.224 Log2 fold change
- rtPCR Log2 fold change relative to untreated cells, CTNNB1 (Cellular Adhesion) [2]: −1.164 Log2 fold change
- rtPCR Log2 fold change relative to untreated cells, GSK3B (Cellular Adhesion) [2]: −1.409 Log2 fold change
- rtPCR Log2 fold change relative to untreated cells, MAP1LC3A (MAP kinase) [2]: −1.527 Log2 fold change
- rtPCR Log2 fold change relative to untreated cells, MAP3K (MAP kinase) [2]: −1.213 Log2 fold change
- rtPCR Log2 fold change relative to untreated cells, MAPK8 (MAP kinase) [2]: −2.27 Log2 fold change
- rtPCR Log2 fold change relative to untreated cells, MITF (Drug Resistance) [2]: −4.196 Log2 fold change
- rtPCR Log2 fold change relative to untreated cells, MNT (Cell Cycle Arrest) [2]: −1.533 Log2 fold change
- rtPCR Log2 fold change relative to untreated cells, MTOR (PI3K/AKT/MTOR) [2]: −1.055 Log2 fold change
- rtPCR Log2 fold change relative to untreated cells, PAK3 (MAP kinase) [2]: −1.926 Log2 fold change
- rtPCR Log2 fold change relative to untreated cells, PIK3C2A (PI3K/AKT/MTOR) [2]: −1.161 Log2 fold change
- rtPCR Log2 fold change relative to untreated cells, PPARG (Receptors) [2]: −1.826 Log2 fold change
- rtPCR Log2 fold change relative to untreated cells, RAC1 (MAP kinase) [2]: −1.274 Log2 fold change
- rtPCR Log2 fold change relative to untreated cells, RASA1 (MAP kinase) [2]: −1.356 Log2 fold change
- rtPCR Log2 fold change relative to untreated cells, ROCK1 (Cellular Adhesion) [2]: −1.013 Log2 fold change
- rtPCR Log2 fold change relative to untreated cells, SMAD2 (TGF signaling) [2]: −1.437 Log2 fold change
- rtPCR Log2 fold change relative to untreated cells, TAZ (HIPPO) [2]: −1.766 Log2 fold change
- rtPCR Log2 fold change relative to untreated cells, gene name not printed (Apoptosis, row r54) [2]: −1.09 Log2 fold change
- rtPCR Log2 fold change relative to untreated cells, gene name not printed (Cell Cycle Arrest, row r42) [2]: −1.332 Log2 fold change
- rtPCR Log2 fold change relative to untreated cells, gene name not printed (Cellular Adhesion, row r57) [2]: −1.436 Log2 fold change
- rtPCR Log2 fold change relative to untreated cells, gene name not printed (PI3K/AKT/MTOR, row r20) [2]: −1.565 Log2 fold change
- rtPCR Log2 fold change relative to untreated cells, gene name not printed (PI3K/AKT/MTOR, row r22) [2]: −1.174 Log2 fold change
- rtPCR Log2 fold change relative to untreated cells, gene name not printed (Receptors, row r7) [2]: −6.09 Log2 fold change
- Protein fold change, DVLD (Cellular Adhesion) [3]: 1.67 Fold change
- Protein fold change, HER2 (Receptor) [3]: 1.34 Fold change
- Protein fold change, MEK PO4 (MAP kinase/PI3K) [3]: 1.40 Fold change
- Protein fold change, MET PO4 (Receptor) [3]: 1.52 Fold change
- Protein fold change, PI3K (MAP kinase/PI3K) [3]: 2.05 Fold change
- Protein fold change, PTEN (MAP kinase/PI3K) [3]: 0.80 Fold change
- Protein fold change, TEAD2 (HIPPO signaling) [3]: 1.46 Fold change
- Protein fold change, VEGA (Angiogenesis) [3]: 1.33 Fold change
- Protein fold change, c-MYC (Apoptosis) [3]: 1.55 Fold change
- Protein fold change, p53 (Apoptosis) [3]: 1.28 Fold change
